We go through 36 molecules from ChEMBL document CHEMBL1155301, “Optimization of the aminopyridopyrazinones class of PDE5 inhibitors: discovery of 3-[(trans-4-hydroxycyclohexyl)amino]-7-(6-methoxypyridin-3-yl)-1-(2-propoxyethyl)pyrido[3,4-b]pyrazin-2(1H)-one” (Bioorg Med Chem Lett, 2009).

Data set [1] addresses Rod cGMP-specific 3',5'-cyclic phosphodiesterase subunit alpha (Homo sapiens, UniProt P16499). The data set is described as follows: Inhibition of PDE6.
Data set [2] concerns the target cGMP-specific 3',5'-cyclic phosphodiesterase (Homo sapiens, UniProt O76074). Put plainly: Inhibition of PDE5.
Data set [3] in a line: Clearance in rat at 2 mg/kg, po and 2 mg/kg, iv. The format is ADME, organism-based. As to conditions: in vivo.
A short description of data set [4]: Oral bioavailability in rat at 2 mg/kg. The data set is classed as ADME, organism-based. The conditions noted are these: in vivo.
A short description of data set [5]: Volume of distribution in rat at 2 mg/kg, iv and 2 mg/kg, po. The data set is classed as ADME, organism-based. The conditions noted are these: in vivo.
The nature of data set [6]: Half life in rat at 2 mg/kg, po and 2 mg/kg, iv. The data set is classed as ADME, organism-based. The conditions noted are these: in vivo.
The test system of data set [7] is Rattus norvegicus. The data set is described as follows: Antihypertensive activity against telemeterized rat at 10 mg/kg, po. Set-up: dose 10 mg/kg. The format is functional, organism-based.
Data set [8] is described as follows: Oral bioavailability in dog at 2 mg/kg. The conditions noted are these: in vivo. The data set is classed as ADME, organism-based, Canis lupus familiaris.
The nature of data set [9]: Half life in dog at 2 mg/kg, po and 2 mg/kg, iv. The data set is classed as ADME, organism-based, Canis lupus familiaris. The conditions noted are these: in vivo.
A short description of data set [10]: Volume of distribution in dog at 2 mg/kg, iv and 2 mg/kg, po. The conditions noted are these: in vivo. The data set is classed as ADME, organism-based, Canis lupus familiaris.
Data set [11] can be described thus: Clearance in dog at 2 mg/kg, po and 2 mg/kg, iv. The data set is classed as ADME, organism-based, Canis lupus familiaris. The conditions noted are these: in vivo.

By IC50 is commonly meant the concentration that gives 50% inhibition. The low end stands for inhibition by little substance, the high end for a need for much substance. The term bioavailability denotes dose-corrected exposure relative to a reference, in per cent. What is called half-life is the time in which the quantity being followed falls by half. Higher therefore signals slow decline.

SMILES strings stand for the structures. Activity calls are given as the source filed them. The rule behind the calls is not given here. Bounds are passed on as bounds.

Chain of Rod cGMP-specific 3',5'-cyclic phosphodiesterase subunit alpha (P16499 whole entry): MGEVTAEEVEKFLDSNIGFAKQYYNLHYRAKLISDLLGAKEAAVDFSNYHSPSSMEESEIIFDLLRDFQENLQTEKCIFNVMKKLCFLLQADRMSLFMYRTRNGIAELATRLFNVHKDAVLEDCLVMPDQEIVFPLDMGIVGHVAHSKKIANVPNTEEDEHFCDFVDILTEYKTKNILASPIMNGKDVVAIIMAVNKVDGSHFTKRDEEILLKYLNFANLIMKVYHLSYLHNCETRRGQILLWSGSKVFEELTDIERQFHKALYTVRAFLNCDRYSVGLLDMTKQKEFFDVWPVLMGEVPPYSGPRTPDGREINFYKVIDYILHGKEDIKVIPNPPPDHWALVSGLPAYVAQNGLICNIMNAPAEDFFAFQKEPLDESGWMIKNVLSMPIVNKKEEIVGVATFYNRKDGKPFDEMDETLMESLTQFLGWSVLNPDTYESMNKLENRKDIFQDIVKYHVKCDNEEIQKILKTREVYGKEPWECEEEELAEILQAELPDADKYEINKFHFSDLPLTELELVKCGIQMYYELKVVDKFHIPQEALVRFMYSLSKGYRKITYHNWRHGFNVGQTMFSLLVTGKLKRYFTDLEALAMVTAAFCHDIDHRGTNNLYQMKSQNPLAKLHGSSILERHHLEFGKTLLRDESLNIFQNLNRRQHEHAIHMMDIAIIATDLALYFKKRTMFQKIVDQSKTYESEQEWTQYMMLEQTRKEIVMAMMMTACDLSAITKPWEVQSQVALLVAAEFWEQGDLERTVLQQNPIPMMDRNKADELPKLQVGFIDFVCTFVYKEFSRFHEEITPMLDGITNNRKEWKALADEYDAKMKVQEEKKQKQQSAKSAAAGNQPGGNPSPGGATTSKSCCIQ

For `CCCOCCn1c(=O)c(NCCN)nc2cnc(-c3ccc(OC)nc3)cc21`, the IC50 in [1] came out at 1210 nM; in [2] it was 0.25 nM.

`CCCOCCn1c(=O)c(N[C@H](C)CO)nc2ncc(-c3ccc(OC)nc3)cc21`: the IC50 came to 63.2 nM in data set [1] and 0.88 nM in data set [2].

On to `CCCOCCn1c(=O)c(NCC(=O)O)nc2ncc(-c3ccc(OC)nc3)cc21`, for which the IC50 amounted to 576 nM in [1] and 2.95 nM in data set [2].

`CCCOCCn1c(=O)c(NCc2cnccn2)nc2cnc(-c3ccc(OC)nc3)cc21`: the concentration for half-maximal inhibition (IC50) was 4.7 nM in [1] and 0.06 nM in [2].

For the molecule `CCCOCCn1c(=O)c(NCC(N)=O)nc2cnc(-c3ccc(OC)nc3)cc21`, the IC50 came to 86.6 nM in [1] and 0.68 nM in [2].

Turning to `CCCOCCn1c(=O)c(NCC(=O)N2CCCC2)nc2cnc(-c3ccc(OC)nc3)cc21`, the IC50 turned out to be 39.5 nM in data set [1] and 0.08 nM in [2].

For the molecule `CCCOCCn1c(=O)c(N[C@H](CC)CO)nc2cnc(-c3ccc(OC)nc3)cc21`, the clearance in data set [3] turned out to be 22.6 mL/min/kg. Moreover, the bioavailability in data set [4] was 61%. For the same molecule, the IC50 in data set [1] came to 23.2 nM; in [2], 0.25 nM. The same molecule came in with a Vd in data set [5] of 2.4 L/kg. In data set [6], this molecule gave a half-life of 1.8 h.

For `CCCOCCn1c(=O)c(NCCN(C)C)nc2ncc(-c3ccc(OC)nc3)cc21`, the half-maximal inhibitory concentration (IC50) is 1590 nM in data set [1] and 4 nM in [2].

`CCCOCCn1c(=O)c(N[C@H](C)CO)nc2cnc(-c3ccc(OC)nc3)cc21`: the IC50 in [1] was 17.7 nM; in data set [2], 0.14 nM.

`CCCOCCn1c(=O)c(N[C@H]2CC[C@H](O)CC2)nc2ncc(-c3ccc(OC)nc3)cc21`: the IC50 came out at 15.3 nM in data set [1] and 0.32 nM in data set [2].

`CCCOCCn1c(=O)c(NCC(=O)N2CCN(C)CC2)nc2cnc(-c3ccc(OC)nc3)cc21`: the results for the IC50 in data set [1] and in data set [2] were 14.7 nM and 0.07 nM, respectively.

Regarding `CCCOCCn1c(=O)c(NC[C@@H](C)O)nc2cnc(-c3ccc(OC)nc3)cc21`, the IC50 in data set [1] stood at 15.1 nM; in [2] it was 0.1 nM.

Molecule `CCCOCCn1c(=O)c(NCC2CCCO2)nc2cnc(-c3ccc(OC)nc3)cc21` (racemic) returned a clearance in data set [3] of 52 mL/min/kg. Besides, the IC50 is 8.6 nM in data set [1] and 0.05 nM in data set [2]. Further, the outcome in data set [7] was Active.

Regarding `CCCOCCn1c(=O)c(NCC(=O)NC)nc2ncc(-c3ccc(OC)nc3)cc21`, the clearance in data set [3] was determined as 19.5 mL/min/kg; in data set [11], 8.8 mL/min/kg. Further, the bioavailability in [8] was determined as 52%; in data set [4], 39%. In addition, the half-life in data set [9] is 2.4 h; in data set [6], 0.8 h. The Vd worked out at 1.3 L/kg in data set [10] and 1 L/kg in [5]. Also, the IC50 stood at 115 nM in data set [1] and 0.43 nM in data set [2].

Take `CCCOCCn1c(=O)c(NCC(=O)N2CCN(CC)CC2)nc2cnc(-c3ccc(OC)nc3)cc21`: the figures for the clearance in data set [3] and in data set [11] were 28 mL/min/kg and 37 mL/min/kg, respectively. The bioavailability was 15% in [8] and 61% in data set [4]. In addition, the half-life in data set [9] was 3.5 h; in [6], 1.4 h. The Vd in data set [10] was 8 L/kg; in [5], 2.3 L/kg. Further, the IC50 in [1] amounted to 55.9 nM; in data set [2] it was 0.13 nM.

`CCCOCCn1c(=O)c(NCCN(C)C)nc2cnc(-c3ccc(OC)nc3)cc21`: the values for the IC50 in data set [1] and in data set [2] were 261 nM and 0.78 nM, respectively.

For `CCCOCCn1c(=O)c(NCCOCC)nc2cnc(-c3ccc(OC)nc3)cc21`, the figures for the IC50 in data set [1] and in data set [2] were 9.3 nM and 0.11 nM, respectively.

As for `CCCOCCn1c(=O)c(N[C@@H](C)CO)nc2ncc(-c3ccc(OC)nc3)cc21`, the IC50 in [1] turned out to be 68.2 nM; in [2] it was 0.55 nM.

Turning to `CCCOCCn1c(=O)c(NCC(=O)N2CCN(C)CC2)nc2ncc(-c3ccc(OC)nc3)cc21`, the figures for the IC50 in [1] and in data set [2] were 80.2 nM and 0.32 nM, respectively.

`CCCOCCn1c(=O)c(NCc2ccccn2)nc2ncc(-c3ccc(OC)nc3)cc21`: the IC50 in data set [1] was determined as 34.5 nM; in data set [2], 0.36 nM.

As for `CCCOCCn1c(=O)c(NC[C@H](C)O)nc2ncc(-c3ccc(OC)nc3)cc21`, the IC50 worked out at 51.8 nM in [1] and 0.34 nM in [2].

Regarding `CCCOCCn1c(=O)c(NCc2cnccn2)nc2ncc(-c3ccc(OC)nc3)cc21`, the figures for the half-inhibitory concentration (IC50) in [1] and in data set [2] were 23.6 nM and 0.28 nM, respectively. Besides, the outcome in data set [7] was Active.

Regarding `CCCOCCn1c(=O)c(NCC(=O)NC)nc2cnc(-c3ccc(OC)nc3)cc21`, the IC50 in data set [1] worked out at 15.2 nM; in data set [2], 0.07 nM.

With `CCCOCCn1c(=O)c(NCC(=O)N2CCNCC2)nc2cnc(-c3ccc(OC)nc3)cc21`, the values for the IC50 in data set [1] and in data set [2] were 100 nM and 1.65 nM, respectively.

In data set [3], `CCCOCCn1c(=O)c(NCC(=O)N2CCC(O)CC2)nc2cnc(-c3ccc(OC)nc3)cc21` showed a clearance of 10.5 mL/min/kg. The same molecule had a bioavailability in [4] of 52%. Also, the values for the half-maximal inhibitory concentration (IC50) in [1] and in data set [2] were 24.6 nM and 0.13 nM, respectively. This molecule also yielded a Vd in data set [5] of 1 L/kg. This molecule had a half-life in data set [6] of 1.7 h.

`CCCOCCn1c(=O)c(NCc2ccccn2)nc2cnc(-c3ccc(OC)nc3)cc21` had a clearance in data set [3] of 21.9 mL/min/kg. Moreover, in data set [4], the bioavailability is 54%. The figures for the half-maximal inhibitory concentration (IC50) in [1] and in data set [2] were 10.8 nM and 0.04 nM, respectively. In addition, the outcome in data set [7] was Active.

As to `CCCOCCn1c(=O)c(NC[C@@H](C)O)nc2ncc(-c3ccc(OC)nc3)cc21`, the IC50 in [1] was 49.7 nM; in [2], 0.54 nM.

In the case of `CCCOCCn1c(=O)c(NCC(=O)N2CCN(CC)CC2)nc2ncc(-c3ccc(OC)nc3)cc21`, the values for the IC50 in data set [1] and in data set [2] were 98.9 nM and 0.38 nM, respectively.

`CCCOCCn1c(=O)c(NCC(=O)N2CCOCC2)nc2ncc(-c3ccc(OC)nc3)cc21`: the results for the clearance in data set [3] and in data set [11] were 18 mL/min/kg and 16.7 mL/min/kg, respectively. For the same molecule, the bioavailability in [8] amounted to 32%; in [4], 51%. In addition, the half-life in [9] is 0.9 h; in data set [6], 0.8 h. In addition, the Vd turned out to be 0.9 L/kg in data set [10] and 0.8 L/kg in data set [5]. Moreover, the IC50 in data set [1] is 114 nM; in data set [2], 1.17 nM.

On to `CCCOCCn1c(=O)c(NCCN)nc2ncc(-c3ccc(OC)nc3)cc21`, for which the IC50 in data set [1] was above 2000 nM; in data set [2], 16.3 nM.

In turn, `CCCOCCn1c(=O)c(NCC2CCOCC2)nc2ncc(-c3ccc(OC)nc3)cc21` registered a clearance in data set [3] of 30 mL/min/kg. In addition, the bioavailability in [4] stood at 15%. For the same molecule, the IC50 stood at 31.4 nM in data set [1] and 0.14 nM in [2]. Further, the outcome in [7] was Active.

In the case of `CCCOCCn1c(=O)c(NCCCO)nc2ncc(-c3ccc(OC)nc3)cc21`, the IC50 turned out to be 124 nM in [1] and 0.71 nM in data set [2].

Take `CCCOCCn1c(=O)c(NCC(N)=O)nc2ncc(-c3ccc(OC)nc3)cc21`: the half-maximal inhibitory concentration (IC50) in data set [1] was 398 nM; in [2] it was 2.59 nM.

The molecule `CCCOCCn1c(=O)c(NCCNCCO)nc2cnc(-c3ccc(OC)nc3)cc21` gave a clearance in [3] of 170 mL/min/kg. In data set [4], the bioavailability stood at 53%. Besides, the concentration for half-maximal inhibition (IC50) in data set [1] amounted to 272 nM; in data set [2], 1.1 nM. In addition, the result in data set [7] was Active.

As to `CCCOCCn1c(=O)c(N[C@@H](C)CO)nc2cnc(-c3ccc(OC)nc3)cc21`, the IC50 is 17.9 nM in [1] and 0.24 nM in data set [2].

For the molecule `CCCOCCn1c(=O)c(NCCOCC)nc2ncc(-c3ccc(OC)nc3)cc21`, the IC50 in data set [1] was determined as 57.4 nM; in [2], 0.17 nM. In [7], the result was inactive.
